Experiment [1] has as its target T1, 5-LO (Homo sapiens, UniProt P09917).
T1 construct: incubating a test compound with heparinised human blood, prior to challenge with the calcium ionophore A23187; endogenous in cells; host or cells: blood cells in heparinised human whole blood
T1 sequence (P09917 1-674): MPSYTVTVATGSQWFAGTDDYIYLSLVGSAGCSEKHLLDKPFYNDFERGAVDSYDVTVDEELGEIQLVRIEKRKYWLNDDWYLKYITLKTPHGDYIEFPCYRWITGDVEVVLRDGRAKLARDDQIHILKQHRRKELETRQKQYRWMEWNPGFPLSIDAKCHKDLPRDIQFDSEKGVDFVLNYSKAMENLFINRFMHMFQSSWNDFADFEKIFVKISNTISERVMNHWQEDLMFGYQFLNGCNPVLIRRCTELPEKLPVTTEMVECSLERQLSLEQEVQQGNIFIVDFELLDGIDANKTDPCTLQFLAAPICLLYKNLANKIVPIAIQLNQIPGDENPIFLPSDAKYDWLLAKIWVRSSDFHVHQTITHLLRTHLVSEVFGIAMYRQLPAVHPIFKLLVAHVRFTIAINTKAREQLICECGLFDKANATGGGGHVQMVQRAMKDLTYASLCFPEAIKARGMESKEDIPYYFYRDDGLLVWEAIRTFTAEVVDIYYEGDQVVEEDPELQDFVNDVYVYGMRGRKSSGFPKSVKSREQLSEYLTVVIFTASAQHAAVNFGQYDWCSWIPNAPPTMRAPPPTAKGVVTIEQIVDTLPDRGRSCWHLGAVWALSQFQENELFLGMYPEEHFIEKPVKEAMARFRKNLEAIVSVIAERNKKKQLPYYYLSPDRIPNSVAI
The experiment can be described thus: Test b) heparinised human blood challenged with A23187, LTB4 radioimmunoassay (5-LO). Format: cell-based. The settings on record: read-out: IC50 against LTB4. How it is done:
(§1) b) An in vitro assay system involving incubating a test compound with heparinised human blood, prior to challenge with the calcium ionophore A23187 and then indirectly measuring the inhibitory effects on 5-LO by assaying the amount of LTB4 using the specific radioimmunoassay described by Carey and Forder (F. Carey and R. A. Forder, Brit. J. Pharmacol. 1985, 84, 34P) which involves the use of a protein-LTB4 conjugate produced using the procedure of Young et alia (Prostaglandins, 1983, 26(4), 605-613). The effects of a test compound on the enzyme cyclooxygenase (which is involved in the alternative metabolic pathway for arachidonic acid .and gives rise to prostaglandins, thromboxanes and related metabolites) may be measured at the same time using the specific radioimmunoassay for thromboxane B2 (T×B2) described by Carey and Forder (see above). This test provides an indication of the effects of a test compound against 5-LO and also cyclooxgenase in the presence of blood cells and proteins. It permits the selectivity of the inhibitory effect on 5-LO or cyclooxygenase to be assessed.

Experiment [2] concerns the target T2, cyclooxygenase (Homo sapiens, UniProt P23219).
T2 construct: incubating a test compound with heparinised human blood, prior to challenge with the calcium ionophore A23187; endogenous in cells; host or cells: blood cells (chiefly platelets, own knowledge) in heparinised human whole blood
The experiment can be described thus: Test b) heparinised human blood challenged with A23187, TxB2 radioimmunoassay (cyclooxygenase). The settings on record: A23187, T×B2. Format: cell-based. The protocol:
as §1

Experiment [3] deals with 5-LO. The experiment can be described thus: Test c) ex vivo assay: administration of compound, blood collection, A23187 challenge, LTB4 radioimmunoassay. The experiment is classed as in vivo. How it is done: c) An ex vivo assay system, which is a variation of test b) above, involving administration of a test compound (usually orally as the suspension produced when a solution of the test compound in dimethylsulphoxide is added to carboxymethylcellulose), blood collection, heparinisation, challenge with A23187 and radioimmunoassay of LTB4 and T×B2. This test provides an indication of the bioavailability of a test compound as an inhibitor of 5-LO or cyclooxygenase.

A value given as a limit tells only on which side of the number the result lay.

T2 sequence (P23219 24-599): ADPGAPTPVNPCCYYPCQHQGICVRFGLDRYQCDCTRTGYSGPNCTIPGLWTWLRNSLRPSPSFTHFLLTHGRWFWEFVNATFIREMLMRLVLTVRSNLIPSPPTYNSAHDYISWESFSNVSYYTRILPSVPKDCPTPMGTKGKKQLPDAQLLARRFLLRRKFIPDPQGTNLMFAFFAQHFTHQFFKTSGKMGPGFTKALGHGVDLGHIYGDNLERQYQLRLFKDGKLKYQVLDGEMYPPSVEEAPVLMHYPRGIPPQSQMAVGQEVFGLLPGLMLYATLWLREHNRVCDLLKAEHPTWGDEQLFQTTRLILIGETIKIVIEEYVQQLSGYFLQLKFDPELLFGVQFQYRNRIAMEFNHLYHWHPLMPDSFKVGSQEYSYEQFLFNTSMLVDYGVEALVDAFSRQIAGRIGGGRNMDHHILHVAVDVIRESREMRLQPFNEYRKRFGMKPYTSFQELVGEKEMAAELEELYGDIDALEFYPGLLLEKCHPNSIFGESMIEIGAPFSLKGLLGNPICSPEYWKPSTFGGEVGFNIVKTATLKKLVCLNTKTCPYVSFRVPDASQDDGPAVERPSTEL

In the case of `CO[C@H]1CCC[C@@]1(OC)c1cccc(OCC#Cc2ccccn2)c1` (relative stereo) [trans-1,2-dimethoxy-1-[3-(3-(2-pyridyl)prop-2-yn-1-yloxy)phenyl]-cyclopentane], the IC50 in experiment [1] was 8 µM; in experiment [2], greater than 40 µM. Further, in experiment [3], the “oral ED50 against LTB4” value is on record as less than 100 mg/k.

By IC50 is commonly meant the concentration that inhibits the measured activity by half.
